Source: patent US20250368650A1, “5-(4-FLUOROPHENYL)-2,3-DIHYDRO-1H-IMIDAZO[1,2-A]IMIDAZOLE DERIVATIVES AS ALK INHIBITORS FOR THE TREATMENT OF FIBROSIS” (CHIESI FARMACEUTICI S.P.A., priority 2022, published 2025)
Counter-ions that a name gives are not always drawn.

What follows are compounds tested against human ALK5 (Homo sapiens (Human), UniProt P36897) (assay: ADP-GLO Kinases assay, ALK5 enzymatic activity). Details: purified recombinant human ALK5 2.6 nM, TGFβ1 peptide 94.5 μM, ATP 0.83 μM, 120 min, 25° C.; pIC50 converted to pKi using the Cheng-Prusoff equation.
human ALK5, sequence (P36897 80-503 limits assumed): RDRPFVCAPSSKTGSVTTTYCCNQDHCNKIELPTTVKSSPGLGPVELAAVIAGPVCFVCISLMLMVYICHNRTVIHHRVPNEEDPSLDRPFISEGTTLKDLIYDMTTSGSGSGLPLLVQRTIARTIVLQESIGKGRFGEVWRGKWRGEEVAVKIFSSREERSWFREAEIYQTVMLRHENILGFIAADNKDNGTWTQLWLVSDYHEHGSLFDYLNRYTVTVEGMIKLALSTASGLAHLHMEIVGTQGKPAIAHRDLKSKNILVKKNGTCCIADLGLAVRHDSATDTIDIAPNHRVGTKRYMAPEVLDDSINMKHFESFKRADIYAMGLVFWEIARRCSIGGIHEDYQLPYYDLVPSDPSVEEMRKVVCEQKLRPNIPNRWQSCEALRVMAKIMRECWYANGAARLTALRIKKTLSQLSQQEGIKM
Type: biochemical
Method: The enzymatic activity of compounds of the present invention was monitored measuring the formation of ADP using the ADP-GLO Kinases assay. Following the incubation of the purified enzyme, a substrate and ATP, the produced ADP was converted into ATP, which in turn was converted into light by Ultra-Glo Luciferase. The luminescent signal positively correlated with ADP amount and kinase activity. Briefly, the kinase reaction was performed by incubating 2.6 nM of the purified, commercially available human ALK5 (recombinant TGF β1 N-term GST-tagged, 80-end), a final concentration of TGFβ1 peptide 94.5 μM (Promega, T36-58) and ultra-pure ATP (Promega V915B). The ATP concentration was set at the Km value (concentration of substrate which permits the enzyme to achieve half maximal velocity (Vmax)) of ALK5 (0.5 μM). Compound and ALK5 kinase were mixed and incubated for 15 min. Reactions were initiated by addition of ATP at a final concentration in the assay of 0.83 μM. After an incubation of 120 min, the reaction was stopped, and ADP production detected with ADP-Glo kit according to manufacturer's indications. All reaction and incubation steps were performed at 25° C. and the assays were performed in 384-well format and validated using a selection of reference compounds tested in 11-point concentration-response curve.
Results were expressed as pIC50 (negative logarithm of IC50) and subsequently converted to pKi (negative logarithm of […]) using the Cheng-Prusoff equation. The higher the value of pKi, the greater the inhibition of ALK5 activity.
For `Cc1cccc(-c2nc3n(c2-c2ccc(F)c(NC(=O)CCN4CCN(C)CC4)c2)CCN3)n1` [Example 1, N-(2-fluoro-5-(6-(6-methylpyridin-2-yl)-2,3-dihydro-1H-imidazo[1,2-a]imidazol-5-yl)phenyl)-3-(4-methylpiperazin-1-yl)propanamide], the Ki was 1.26 to 7.94 nM.
For `Cc1cccc(-c2nc3n(c2-c2ccc(F)c(NC(=O)CCN4CCCCC4)c2)CCN3)n1` [Example 2, N-(2-fluoro-5-(6-(6-methylpyridin-2-yl)-2,3-dihydro-1H-imidazo[1,2-a]imidazol-5-yl)phenyl)-3-(piperidin-1-yl)propanamide], the “ALK5 pKi” value was no less than 9.0.
`Cc1cccc(-c2nc3n(c2-c2ccc(F)c(NC(=O)CCN4CCN(CCO)CC4)c2)CCN3)n1` [Example 3, N-(2-fluoro-5-(6-(6-methylpyridin-2-yl)-2,3-dihydro-1H-imidazo[1,2-a]imidazol-5-yl)phenyl)-3-(4-(2-hydroxyethyl)piperazin-1-yl)propanamide] showed a Ki of 1.26 to 7.94 nM.
`Cc1cccc(-c2nc3n(c2-c2ccc(F)c(NC(=O)CCN4CCN(CC(F)(F)F)CC4)c2)CCN3)n1` [Example 4, N-(2-fluoro-5-(6-(6-methylpyridin-2-yl)-2,3-dihydro-1H-imidazo[1,2-a]imidazol-5-yl)phenyl)-3-(4-(2,2,2-trifluoroethyl)piperazin-1-yl)propanamide] showed a Ki of 1.26 to 7.94 nM.
In the case of `Cc1cccc(-c2nc3n(c2-c2ccc(F)c(NC(=O)CN(C)C)c2)CCN3)n1` [Example 5, 2-(Dimethylamino)-N-(2-fluoro-5-(6-(6-methylpyridin-2-yl)-2,3-dihydro-1H-imidazo[1,2-a]imidazol-5-yl)phenyl)acetamide], the Ki is reported as 10 to 31.6 nM.
`Cc1cccc(-c2nc3n(c2-c2ccc(F)c(NC(=O)CN4CCN(C)CC4)c2)CCN3)n1` [Example 6, N-(2-fluoro-5-(6-(6-methylpyridin-2-yl)-2,3-dihydro-1H-imidazo[1,2-a]imidazol-5-yl)phenyl)-2-(4-methylpiperazin-1-yl)acetamide] was tested, and the Ki was 10 to 31.6 nM.
For `Cc1cccc(-c2nc3n(c2-c2ccc(F)c(NC(=O)CCCN4CCN(C)CC4)c2)CCN3)n1` [Example 7, N-(2-fluoro-5-(6-(6-methylpyridin-2-yl)-2,3-dihydro-1H-imidazo[1,2-a]imidazol-5-yl)phenyl)-4-(4-methylpiperazin-1-yl)butanamide], the Ki was 1.26 to 7.94 nM.
Work on `CN1CCN(CCC(=O)Nc2cc(-c3c(-c4cc(Cl)ccc4F)nc4n3CCN4)ccc2F)CC1` [Example 8, N-(5-(6-(5-chloro-2-fluorophenyl)-2,3-dihydro-1H-imidazo[1,2-a]imidazol-5-yl)-2-fluorophenyl)-3-(4-methylpiperazin-1-yl)propanamide] yielded a Ki of 1.26 to 7.94 nM.
Work on `Cc1cccc(-c2nc3n(c2-c2ccc(F)c(NC(=O)CCN(C)C)c2)CCN3)n1` [Example 9, 3-(Dimethylamino)-N-(2-fluoro-5-(6-(6-methylpyridin-2-yl)-2,3-dihydro-1H-imidazo[1,2-a]imidazol-5-yl)phenyl)propanamide] yielded a Ki of no more than 1 nM.
With `O=C(CCN1CCCCC1)Nc1cc(-c2c(-c3cc(Cl)ccc3F)nc3n2CCN3)ccc1F` [Example 10, N-(5-(6-(5-chloro-2-fluorophenyl)-2,3-dihydro-1H-imidazo[1,2-a]imidazol-5-yl)-2-fluorophenyl)-3-(piperidin-1-yl)propanamide] the Ki was no more than 1 nM.
For `Cc1cccc(-c2nc3n(c2-c2ccc(F)c(NC(=O)CCCN4CCCCC4)c2)CCN3)n1` [Example 11, N-(2-fluoro-5-(6-(6-methylpyridin-2-yl)-2,3-dihydro-1H-imidazo[1,2-a]imidazol-5-yl)phenyl)-4-(piperidin-1-yl)butanamide], the Ki was 1.26 to 7.94 nM.
`Cc1cccc(-c2nc3n(c2-c2ccc(F)c(NC(=O)CCC[N+]4(C)CCCCC4)c2)CCN3)n1` [Example 12, 1-(4-((2-Fluoro-5-(6-(6-methylpyridin-2-yl)-2,3-dihydro-1H-imidazo[1,2-a]imidazol-5-yl)phenyl)amino)-4-oxobutyl)-1-methylpiperidin-1-ium chloride hydrochloride] showed a Ki of 1.26 to 7.94 nM.
`Cc1cccc(-c2nc3n(c2-c2ccc(F)c(NC4CCN(C(C)C)CC4)c2)CCN3)n1` [Example 13, N-(2-fluoro-5-(6-(6-methylpyridin-2-yl)-2,3-dihydro-1H-imidazo[1,2-a]imidazol-5-yl)phenyl)-1-isopropylpiperidin-4-amine] showed a Ki of 10 to 31.6 nM.
`Cc1cccc(-c2nc3n(c2-c2ccc(F)c(NCC4CCN(C)CC4)c2)CCN3)n1` [Example 14, 2-Fluoro-N-((1-methylpiperidin-4-yl)methyl)-5-(6-(6-methylpyridin-2-yl)-2,3-dihydro-1H-imidazo[1,2-a]imidazol-5-yl)aniline] gave a Ki of 1.26 to 7.94 nM.
